Source: paper PMC5602538, “Assessment of the Drug Interaction Potential of Unconjugated and GalNAc3-Conjugated 2′-MOE-ASOs” (Molecular Therapy. Nucleic Acids, 2017)
{GalNAc3} = trishexylamino-C6 triantennary GalNAc conjugate; e = 2'-O-(2-methoxyethyl) (MOE); d = 2'-deoxy (DNA)

What was measured:
CYP1A2 = biological target: T1, CYP1A2 (Homo sapiens, UniProt P05177); test: CYP1A2 inhibition in cryopreserved human hepatocyte suspensions (phenacetin probe); format: in vitro ADME; settings: human hepatocytes
T1 construct: Human hepatocytes (pooled from 5 donors); host or cells: cryopreserved human hepatocytes in suspension, pooled from 5 donors
Experimental: (§3) Preincubations were performed in 50 μL of Williams’ Medium E with 2 mM salicylamide. The salicylamide was included to reduce possible phase II conjugation to the precursor phase I metabolites. […] Human hepatocytes (pooled from 5 donors) were thawed and prepared according to the vendor’s protocol. […] Incubations were carried out at 37°C with 5% CO2. The incubation time was 45 min for phenacetin, diclofenac, dextromethorphan, midazolam, bupropion, chlorzoxazone, and testosterone and 90 min for paclitaxel and (S)-mephenytoin. The reactions were stopped by adding 200 μL of ice-cold acetonitrile (can) with tolbutamide (100 ng/mL) as the internal standard to 100 μL of hepatocyte suspension (1:2, v/v). The 96-well plate was then vortexed at 1,700 rpm for 3 min and centrifuged at 3,500 rpm for 10 min at 20°C. The supernatants were analyzed using liquid chromatography-tandem MS (LC-MS/MS).

BSEP = tested on: T2, BSEP; test: BSEP inhibition study in Sf9 membrane vesicles; format: in vitro ADME; settings: 100 μM ASO, 1 μM taurocholate
T2 construct: purchased Life Technologies; host or cells: Sf9 cells (membrane vesicles)
Experimental: The test system included a 96-well flat bottom plate containing a suspension of vesicles and a 96-well glass fiber filtration plate. Transport experiments were initiated with the addition of Mg-ATP (for ATP-dependent BSEP uptake) or AMP (non-ATP-dependent uptake) to appropriate wells. Preparation of the flat-bottom plates included incubation with blocking buffer for 60 min at 37°C with orbital shaking at 120 rpm. After 60 min, the blocking buffer was completely removed and assay uptake buffer solutions were added. For BSEP inhibition studies, solutions contained 1 μM [^3H]-taurocholic acid as a substrate and either assay vehicle, test article (at 100 μM), or reference inhibitor (300 μM rifampicin). For BSEP substrate studies, solutions contained either 1 μM [^3H]-taurocholic acid or 10 μM test article. […] These samples were counted using a 1450 Microbeta (Perkin-Elmer). […] The test article was quantitated by LC-MS.
Signal to noise for the BSEP probe substrate was calculated by dividing the uptake of the probe substrate in BSEP-expressing vesicles in the presence of ATP by the uptake of the BSEP substrate in the vesicles in the presence of AMP. Percent inhibition in the presence of the test article or the reference inhibitors was calculated as: %inhibition=100−(100×(ATP−dependent,transportor−mediatedaccumulation)withinhibitor/(ATP−dependent,transportor−mediatedaccumulation)withoutinhibitor).

CYP2C8 = biological target: T3, CYP2C8 (Homo sapiens, UniProt P10632); settings: hepatocytes
T3 sequence (P10632 1-490): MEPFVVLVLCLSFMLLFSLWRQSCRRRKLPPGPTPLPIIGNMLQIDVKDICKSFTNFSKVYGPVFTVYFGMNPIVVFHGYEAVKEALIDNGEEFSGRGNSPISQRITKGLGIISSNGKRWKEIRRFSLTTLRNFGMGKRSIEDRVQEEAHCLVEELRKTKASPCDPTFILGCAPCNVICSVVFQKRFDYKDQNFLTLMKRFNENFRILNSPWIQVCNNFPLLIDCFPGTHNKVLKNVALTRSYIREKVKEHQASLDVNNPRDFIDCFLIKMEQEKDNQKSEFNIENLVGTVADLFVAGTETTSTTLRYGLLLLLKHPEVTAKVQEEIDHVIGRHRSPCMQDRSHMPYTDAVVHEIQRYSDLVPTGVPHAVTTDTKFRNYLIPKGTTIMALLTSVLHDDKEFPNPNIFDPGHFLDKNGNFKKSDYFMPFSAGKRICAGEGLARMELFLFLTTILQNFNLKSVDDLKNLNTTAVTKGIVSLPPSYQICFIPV
Experimental: as §3

CYP2C9 = CYP2C9 (Homo sapiens, UniProt P11712); settings: hepatocytes
Experimental: as §3

CYP3A4 mRNA = CYP3A4 mRNA induction in plated human hepatocytes; settings: ASO 100 μM, human hepatocytes 72 hr, vs PBS 1% vehicle, mean ± SD of triplicate
Experimental: (§1) Upon receipt, sandwich-cultured cryopreserved human hepatocytes (with Matrigel) plated on collagen-coated 24-well plates were inspected under a microscope for general morphology and viability. Fresh culture medium (OptiCulture Hepatocyte Media) was added to each plate that passed the visual inspection. The plates were then placed in an incubator set to 37°C with 5% carbon dioxide (CO2) for overnight acclimation. […] During this time, cells in parallel wells were also treated with 50.0 μM omeprazole (inducer of CYP1A2), 1,000 μM phenobarbital (inducer of CYP2B6), or 10.0 μM rifampicin (inducer of CYP3A4) in triplicate, respectively.
After collection of the supernatant for catalytic analysis, the remaining cells were washed and lysed with QIAGEN Buffer RLT from the QIAGEN RNeasy Kit. […]
(§2) The activity of each CYP enzyme was measured by comparing the peak area ratio of the corresponding product to the peak area ratio of the internal standard. The fold induction was calculated by dividing the peak area ratio of each individual well from the treatment group by the mean of the peak area ratios obtained from the vehicle control wells. […] The ΔCƬ was calculated as follows: ΔCƬ = CƬ (CYP) − CƬ (GAPDH). […] The ΔΔCƬ was calculated as follows: ΔΔCƬ = Δ CƬ (Treatment) − Δ CƬ (Vehicle). The fold induction of the target CYP was calculated using the following equation: Fold=2^-ΔΔCT.

CYP2B6 = CYP2B6 enzyme activity induction in plated human hepatocytes; settings: ASO 100 μM, human hepatocytes 72 hr, vs PBS 1% vehicle, mean ± SD of triplicate
Experimental: as §1
The plates were then incubated at 37°C with 5% CO2 for 60 min. […] Aliquots of the supernatants were analyzed by LC-MS/MS for the formation of acetaminophen, hydroxyl-bupropion, or hydroxyl-midazolam as markers for enzyme activity of CYP1A2, CYP2B6, and CYP3A4, respectively.
as §2, with “The fold induction of the target CYP was calculated using the following equation: Fold=2^-ΔΔCT.” left out

Chain of CYP2C9 (P11712 whole entry): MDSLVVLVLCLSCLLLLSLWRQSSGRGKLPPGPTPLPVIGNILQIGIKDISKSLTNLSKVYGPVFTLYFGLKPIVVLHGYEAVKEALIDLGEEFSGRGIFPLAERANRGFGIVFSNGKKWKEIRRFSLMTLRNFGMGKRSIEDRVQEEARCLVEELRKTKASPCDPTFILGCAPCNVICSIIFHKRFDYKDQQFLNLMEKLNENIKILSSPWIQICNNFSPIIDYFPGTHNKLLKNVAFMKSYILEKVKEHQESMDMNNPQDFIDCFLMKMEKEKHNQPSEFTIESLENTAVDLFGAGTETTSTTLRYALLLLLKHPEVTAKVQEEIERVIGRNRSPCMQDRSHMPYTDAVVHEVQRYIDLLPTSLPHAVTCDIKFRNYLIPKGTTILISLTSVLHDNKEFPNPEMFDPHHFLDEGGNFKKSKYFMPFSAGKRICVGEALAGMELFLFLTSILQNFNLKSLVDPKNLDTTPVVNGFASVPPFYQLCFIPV
T1 sequence (P05177 whole entry): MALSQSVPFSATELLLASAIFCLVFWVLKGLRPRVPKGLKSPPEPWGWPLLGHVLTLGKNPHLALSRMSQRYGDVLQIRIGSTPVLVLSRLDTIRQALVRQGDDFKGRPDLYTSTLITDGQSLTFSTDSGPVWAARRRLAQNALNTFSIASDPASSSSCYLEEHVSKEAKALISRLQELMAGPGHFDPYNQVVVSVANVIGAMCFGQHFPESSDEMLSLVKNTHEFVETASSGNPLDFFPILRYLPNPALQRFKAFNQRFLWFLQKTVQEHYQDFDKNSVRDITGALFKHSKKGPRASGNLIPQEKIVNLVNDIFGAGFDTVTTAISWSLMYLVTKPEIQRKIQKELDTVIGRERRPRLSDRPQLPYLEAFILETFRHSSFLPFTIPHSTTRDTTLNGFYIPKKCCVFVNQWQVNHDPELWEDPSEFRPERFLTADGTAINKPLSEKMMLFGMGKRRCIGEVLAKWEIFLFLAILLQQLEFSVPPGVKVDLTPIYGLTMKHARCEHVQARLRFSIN

Substance	IC50 (CYP1A2) [µM]	Enhancement of probe substrate uptake, BSEP (BSEP) [%]	IC50 (CYP2C8) [µM]	IC50 (CYP2C9) [µM]	Fold induction of CYP3A4 mRNA (CYP3A4 mRNA) [fold]	Fold induction of CYP2B6 enzyme activity (CYP2B6) [fold]
ISIS 304801: 20-mer (5-10-5) 2′-MOE gapmer PS backbone antisense inhibitor of apoC-III, sequence AGCTTCTTGTCCAGCTTTAT (sugars from the 5' end e5 d10 e5, all phosphorothioate, methylation of C not given here)	> 100	21.0	> 100	> 100	–	–
ISIS 420915: 20-mer 2′-MOE gapmer PS backbone antisense inhibitor of transthyretin, sequence TCTTGGTTACATGAAATCCC (all phosphorothioate, sugars by position and methylation of C not given here; 2'-MOE gapmer)	> 100	–	> 100	> 100	–	–
ISIS 681257: 20-mer 2′-MOE gapmer PS/PO mixed backbone ASO conjugated to 5′-trishexylamino GalNAc3, targets Lp(a), sequence TGCTCCGTTGGTGCTTGTTC (5' {GalNAc3}, sugars by position and backbone not given here; 2'-MOE gapmer with mixed PS/PO backbone)	–	–	–	–	0.213 ± 0.0471	1.20 ± 0.389
